This is an account of results in patent US20140206559A1, “ASSAY FOR […] OF TUMOR CELLS” (PRESIDENT AND FELLOWS OF HARVARD COLLEGE, priority 2011, published 2014).

The test system of the test is invasive cells (PC-3 and DU-154). In words: three-dimensional in vitro invasion assay (CiGiP, paper-Matrigel layers, calcein stain). The format is cell-based. The following applies: PC-3 and DU-154 prostate cancer cells in stacked paper-Matrigel layers; 1-5 days culture of stacked layers; inhibitor of actin-based motility present. As to the method:
The following invasive potential of the cell lines were assessed using the 3D in vitro assay as disclosed herein: Breast cancer cells; triple negative highly invasive cell line MDA-MB-231. Prostate cancer cells: highly invasive PC-3 and DU-154 isolate from bone and brain metastases, weakly invasive LNCaP and CWR-22 lines. Control cells included normal prostate epithelial cells (RWPE-1) and fibroblasts (HIN 3T3) as negative controls.
Permeation of the suspension of cells in Matrigel into paper yielded thin (200 μm) layers of Matrigel with cells trapped within [Derda et al, PNAS 2009; Derda et al, PLoS submitted]. […] The inventors also assessed other combinations of different numbers of seed-substrates and different numbers of receiving-substrates.
After additional 1-5 days of culture of the 3-D assay of stacked layers, the layers were separated by peeling apart and the amount of cells (e.g., the number, density or quantity) of cells in one or more receiving layer was measured, and optionally the amount of the amount of cells (e.g., the number, density or quantity) of cells in the seed-substrate layer. […]
To measure the quantity of cells in each layer, the layers were incubated in solution of calcein which stains viable cells and the layers were imaged using fluorescent scanner at 100 micron resolution. […]

`C=C1[C@@H](C)[C@H]2[C@H](Cc3ccccc3)NC(=O)[C@]23[C@H](OC(C)=O)/C=C/[C@@](C)(O)C(=O)[C@@H](C)C/C=C/[C@H]3[C@@H]1O` [cytoclasin D]: the “invasion of the upper "receiver-substrate" layer by invasive cells” value is reported as “blocked”.
